Source: ChEMBL document CHEMBL2424610, “Design, synthesis, and evaluation of 4-(substituted)phenyl-2-thioxo-3,4-dihydro-1H-chromino[4,3-d]pyrimidin-5-one and 4-(substituted)phenyl-3,4-dihydro-1H-chromino[4,3-d]pyrimidine-2,5-dione analogs as antitubercular agents” (Med Chem Res, 2013)
pIC50: −log10 of the molar value.

How the values were obtained:
Vero = test: Cytotoxicity against african green monkey Vero cells; format: cell-based; conditions: Chlorocebus sabaeus
[1] = test system: Mycobacterium tuberculosis; test: Antitubercular activity against Mycobacterium tuberculosis H37Rv ATCC 27294 assessed as growth inhibition at 128 uM by luminescence-based low oxygen-recovery assay; format: functional; conditions: read-out: GI
[2] = test system: Mycobacterium tuberculosis; test: Antitubercular activity against Mycobacterium tuberculosis H37Rv ATCC 27294 assessed as growth inhibition at 128 uM after 4 days by microplate Alamar blue assay; format: functional; conditions: H37Rv ATCC 27294, 96 h, read-out: GI

COc1ccc(C2NC(=O)Nc3c2c(=O)oc2ccccc32)cc1OC (stereo not drawn)
pIC50 (Vero): < 3.89 | inhibition of growth at 128 µM [1]: 0% | inhibition of growth at 128 µM [2]: 0%

COc1ccc(C2NC(=O)Nc3c2c(=O)oc2ccc(C)cc32)cc1 (stereo not drawn)
pIC50 (Vero): 4.00 | inhibition of growth at 128 µM [1]: 62% | inhibition of growth at 128 µM [2]: 58%

COc1ccc(C2NC(=O)Nc3c2c(=O)oc2ccc(C)cc32)cc1OC (stereo not drawn)
pIC50 (Vero): < 3.89 | inhibition of growth at 128 µM [1]: 35% | inhibition of growth at 128 µM [2]: 55%

COc1cc(C2NC(=O)Nc3c2c(=O)oc2ccccc32)ccc1O (stereo not drawn)
pIC50 (Vero): < 3.89 | inhibition of growth at 128 µM [1]: 1% | inhibition of growth at 128 µM [2]: 37%

O=C1Nc2c(c(=O)oc3ccccc23)C(c2ccccc2O)N1 (stereo not drawn)
pIC50 (Vero): 3.91 | inhibition of growth at 128 µM [1]: 37% | inhibition of growth at 128 µM [2]: 45%

O=C1Nc2c(c(=O)oc3ccccc23)C(c2cccc(Br)c2)N1 (stereo not drawn)
pIC50 (Vero): 3.97 | inhibition of growth at 128 µM [1]: 15% | inhibition of growth at 128 µM [2]: 7%

O=c1oc2ccccc2c2c1C(c1ccccc1)NC(=S)N2 (stereo not drawn)
pIC50 (Vero): < 3.89 | inhibition of growth at 128 µM [1]: 20% | inhibition of growth at 128 µM [2]: 10%

COc1ccc(C2NC(=S)Nc3c2c(=O)oc2ccccc32)cc1 (stereo not drawn)
pIC50 (Vero): < 3.89 | inhibition of growth at 128 µM [1]: 0% | inhibition of growth at 128 µM [2]: 0%

COc1ccc(C2NC(=S)Nc3c2c(=O)oc2ccccc32)cc1OC (stereo not drawn)
pIC50 (Vero): < 3.89 | inhibition of growth at 128 µM [1]: 0% | inhibition of growth at 128 µM [2]: 0%

COc1ccc(C2NC(=S)Nc3c2c(=O)oc2ccc(C)cc32)cc1 (stereo not drawn)
pIC50 (Vero): < 3.89 | inhibition of growth at 128 µM [1]: 1% | inhibition of growth at 128 µM [2]: 0%

COc1ccc(C2NC(=S)Nc3c2c(=O)oc2ccc(C)cc32)cc1OC (stereo not drawn)
pIC50 (Vero): < 3.89 | inhibition of growth at 128 µM [1]: 14% | inhibition of growth at 128 µM [2]: 9%

COc1cc(C2NC(=S)Nc3c2c(=O)oc2ccccc32)ccc1O (stereo not drawn)
pIC50 (Vero): < 3.89 | inhibition of growth at 128 µM [1]: 0% | inhibition of growth at 128 µM [2]: 0%

O=c1oc2ccccc2c2c1C(c1cccc(Br)c1)NC(=S)N2 (stereo not drawn)
pIC50 (Vero): 4.32 | inhibition of growth at 128 µM [1]: 59% | inhibition of growth at 128 µM [2]: 12%

Cc1ccc2oc(=O)c3c(c2c1)NC(=S)NC3c1cccc(Br)c1 (stereo not drawn)
pIC50 (Vero): 4.32 | inhibition of growth at 128 µM [1]: 61% | inhibition of growth at 128 µM [2]: 32%

O=C1Nc2c(c(=O)oc3ccccc23)C(c2ccccc2)N1 (stereo not drawn)
pIC50 (Vero): 4.07 | inhibition of growth at 128 µM [1]: 17% | inhibition of growth at 128 µM [2]: 0%

COc1ccc(C2NC(=O)Nc3c2c(=O)oc2ccccc32)cc1 (stereo not drawn)
pIC50 (Vero): 3.92 | inhibition of growth at 128 µM [1]: 4% | inhibition of growth at 128 µM [2]: 8%
